Values joined by “and” are separate entries in the source; they are usually repeats but may differ in a detail not shown here. Equal entries are not always repeated. Active and inactive are the calls of the source.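 Rule for the calls: active = compounds giving half or more protection of infected cells from virus-caused growth loss, again on retest; inactive = the rest.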
System: CEM cells HIV-1 protection, formazan growth assay
Test: NCI AIDS Antiviral Assay
Details: for IC50: measured here: growth of uninfected CEM cells
In short: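 Human CEM cells, uninfected and HIV-1-infected, received five drug concentrations, and growth was read by soluble formazan assay. Compounds giving at least 50% protection were retested; reproducible 100% protection defined confirmed active.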

Structure (SMILES)	EC50	IC50	outcome
Cn1cc(NC(=O)Nc2cc(C(=O)Nc3cc(C(=O)Nc4cc(C(=O)Nc5ccc(S(=O)(=O)O)c6cc(S(=O)(=O)O)ccc56)n(C)c4)n(C)c3)n(C)c2)cc1C(=O)Nc1cc(C(=O)Nc2cc(C(=O)Nc3ccc(S(=O)(=O)O)c4cc(S(=O)(=O)O)ccc34)n(C)c2)n(C)c1	0.178 µM	75.9 µM	
COc1cc2c3c(c1OC)-c1cc4c(cc1CC3(C#N)N(C(=O)c1ccccc1)CC2)OCO4 (stereo unspecified)			inactive
O=C(NNC(=O)c1ccccc1Cl)c1ccccc1Cl	> 200 µM	> 200 µM	
CC(=O)OCCn1c([N+](=O)[O-])cnc1/C=[N+](/[O-])CCO			inactive
CCCCCC(CO)C(O)(C(F)(F)F)C(F)(F)F (stereo unspecified)	> 200 µM	70.8 µM	
COC(=O)c1cc2cnc1CSCc1cnc(c(C(=O)OC)c1)CSC2	> 200 µM	> 200 µM	
O=C1CC(c2ccco2)NC(=O)N1CCCl (stereo unspecified)	> 200 µM	> 200 µM	
CCC(C)(O)c1cn(-c2ccc(S(=O)(=O)O)cc2)nn1 (stereo unspecified)	> 417 µM	> 417 µM	
CC(=O)OC1C2C(=C(C)C(=O)O[C@@H]2c2ccoc2)[C@@]2(C)C3CCC(C)(C(=O)O3)C12 (stereo partly specified)	162 µM	> 200 µM	
C[C@@H]1[C@@H](C)C(c2ccccc2)O[Si]1(C(C)(C)C)C(C)(C)C (stereo partly specified)	> 100 µM	56.2 µM	
CCOC(=O)CCC(NC(=O)N1CCN(c2c(C)nc(C)[nH]c2=O)CC1)C(=O)OCC (stereo unspecified)	> 200 µM	> 200 µM	
OCC1COc2cc(Cl)c(Cl)cc2O1 (stereo unspecified)	> 200 µM	120 µM	
c1ccc([P+](CCSCCSCC[P+](c2ccccc2)(c2ccccc2)c2ccccc2)(c2ccccc2)c2ccccc2)cc1	> 339 µM	61.7 µM	
CC[C@@H]1OC2(C)CC(S(=O)(=O)c3ccccc3O)CC1O2 (stereo partly specified)	> 794 µM	741 µM	
C[C@]12CC[C@@H]3c4cc(Br)c(O)c(Br)c4CC[C@H]3[C@@H]1CCC2=O	> 200 µM	33.1 µM	
COc1ccc(CC(=O)c2cc(OC)c(OC)cc2C)cc1OC	> 398 µM	30.9 µM	
CCCCNC(=S)/N=C/c1c(O)c2ccccc2[nH]c1=O	> 200 µM	> 200 µM	
CCC(=O)O[C@@H]1C2C(OC(C)=O)C34COC(C)([C@@H]3C3C(C[C@]3(C)OC(C)=O)[C@@H](OC(=O)c3ccccc3)C4=O)[C@H](OC(C)=O)[C@@]2(OC(C)=O)C[C@@H]1C (stereo partly specified)	> 10 µM	> 10 µM	
OC1CCC(O)[C@H]2[C@@H]1[C@@H]1S[C@H]2c2ccccc21 (stereo partly specified)	> 200 µM	> 200 µM	
CCOc1ccc(/C(C)=N/NC(N)=S)cc1			inactive
O=C(Oc1ccccc1C(=O)O)c1ccccc1O	> 200 µM	> 200 µM	
C/C(=C\c1ccc(F)cc1)C(=O)O	> 275 µM	> 275 µM	

Structure (SMILES)	EC50	IC50	outcome
N#CC(c1ccccc1)N(CCCCCCN(C(=O)c1ccccc1)C(C#N)c1ccccc1)C(=O)c1ccccc1 (stereo unspecified)	> 200 µM	61.7 µM	
Cc1ccc(S(=O)(=O)N(/N=C/C=C/c2ccccc2)c2nnc(-c3ccccc3)c(-c3ccccc3)n2)cc1	> 18.6 µM	10 µM	
Cc1ccc(C(=O)n2nc(C)c(N=Nc3ccccc3)c2C)cc1			inactive
COc1ccc2ccc3c(c2c1)CN1CCc2cc(OC)c(OC)cc2C1C3 (stereo unspecified)			inactive
O=C(/C=C/c1ccc(Cl)c(Cl)c1)CCN1CCN(CCC(=O)/C=C/c2ccc(Cl)c(Cl)c2)CC1	> 200 µM	1.91 µM	
CCOC(=O)CCC1(C(=O)OCC)CCCC1=O (stereo unspecified)	> 263 µM	> 263 µM	
CC(C)(C)/C(O)=C\c1nc2cc(C(F)(F)F)ccc2[nH]c1=O	> 200 µM	> 200 µM	
COc1ccccc1/C=C(/C(=O)c1ccccc1)c1ccccc1	> 8.71 µM	> 8.71 µM	
C/C=C1/C(=C/c2[nH]c(/C=c3\[nH]/c(=C/C4=NC(=O)C(CC)=C4C)c(C)c3CCC(=O)O)c(CCC(=O)O)c2C)NC(=O)C1C (stereo unspecified)			inactive
C/C=C(/C)C(=O)O[C@H]1[C@H](O)CC(c2ccc3c(c2O)C(O)=C2C(=O)C4(OC)C(O)=C(C(N)=O)C(=O)[C@H](CC(=O)c5ccccc5O)C4CC2[C@@]3(C)OC)O[C@@H]1C (stereo partly specified)	> 2 µM	0.000631 µM	
C/C(O)=C/c1nc2sc(C)c(C)c2c(=O)s1	> 200 µM	39.8 µM	
CC(c1ccc(Br)cc1)C(C(=O)O)C(=O)O (stereo unspecified)			inactive
O=C(Sc1c(-c2ccccc2)c(=O)n(-c2ccccc2)c(=S)n1-c1ccccc1)c1ccco1	> 200 µM	34.7 µM	
COc1ccc(CCCNC(=O)Cc2ccccc2CO)cc1OC	> 200 µM	> 200 µM	
NC(=O)C12CC3CC(CC(F)(C3)C1)C2	> 1260 µM	> 1260 µM	
CCOc1cnn(-c2ccccc2)c(=O)c1SCc1ccc(Cl)c(Cl)c1	> 33.1 µM	18.6 µM	
COc1ccc(NC(=O)/C(N=O)=C(/C)O)cc1	> 1050 µM	> 1050 µM	
O=C1O/C(=C(\Br)c2cccc3ccccc23)c2ccccc21	> 7.76 µM	> 7.76 µM	
C[N+](C)=C1C=CC(=C2C=C(c3ccccc3)Oc3ccccc32)C=C1	> 200 µM	1.17 µM	
O=C(O)c1ccccc1/C=N/NC1=NCCN1	> 200 µM	85.1 µM	
COc1cc(C2[C@H]3C(=O)N(c4ccc(Cc5ccc(N6C(=O)[C@@H]7ON(c8ccccc8)C(c8cc(OC)c(OC)c(OC)c8)[C@@H]7C6=O)cc5)cc4)C(=O)[C@H]3ON2c2ccccc2)cc(OC)c1OC (stereo partly specified)	> 5.62 µM	> 5.62 µM	
O=C(O)CCC(=O)NCCOC(=O)CCC(=O)O	> 955 µM	> 955 µM	

Structure (SMILES)	EC50	IC50	outcome
NC(c1ccccc1)P(=O)(OCc1ccc([N+](=O)[O-])cc1)OCc1ccc([N+](=O)[O-])cc1 (stereo unspecified)	> 87.1 µM	53.7 µM	
NCCN(CCN)CCN	> 151 µM	> 151 µM	
COc1ccc(C(CC(=O)O)c2ccccc2)cc1 (stereo unspecified)	> 708 µM	501 µM	
CC(=O)Nc1c(C(=O)O)[nH]c(=O)[nH]c1=O	> 200 µM	> 200 µM	
COC(=O)CSSCC(=O)OC			inactive
CN1CCN(CCCN2c3ccccc3Sc3ccc(C(F)(F)F)cc32)CC1	> 200 µM	9.55 µM and 4.37 µM	
O=C(NCCCNCCNC(=O)c1cc(-c2ccccc2)nc2ccccc12)c1cc(-c2ccccc2)nc2ccccc12	> 20 µM	3.02 µM	
COc1cc2c(cc1OC)[C@H]1C(COC(=O)Nc3ccccc3)CN1CC2 (stereo partly specified)	> 676 µM	93.3 µM	
Cc1nc2sccn2c1C(=O)N/N=C1\SCC(=O)N1C	> 427 µM	> 427 µM	
CCSc1nn(-c2c3ccccc3nc3ccccc23)c(=S)s1	> 200 µM	102 µM	
CCCCCCCCCCCCCCCCP(=O)([O-])OCC[N+](C)(C)C	> 200 µM	12 µM	
O=C(NC(=O)c1ccccc1[N+](=O)[O-])Nc1ccc(Oc2ncc(Cl)cn2)c([N+](=O)[O-])c1			inactive
CSc1ccc(/C=C2/C[N+](C)(C)C/C(=C/c3ccc(SC)cc3)C2=O)cc1	> 129 µM	12.3 µM	
CN(C)C(=O)NC(=S)N(C)C			inactive
COc1ccc(N=Nc2cc(OC)c(N=Nc3c(O)c4ccccc4[nH]c3=O)cc2OC)cc1	> 100 µM	15.5 µM	
CC(=O)OCC1OC(Nc2ccc3nc(C)n(-c4cccc(C)c4)c(=O)c3c2)C(OC(C)=O)C(OC(C)=O)C1OC(C)=O (stereo unspecified)	> 126 µM	> 126 µM	
CCOC(=O)/C(C#N)=C/c1ccccc1[N+](=O)[O-]	> 275 µM	46.8 µM	
O=C(c1ccc(S(=O)(=O)c2ccccc2)cc1)c1ccc(S(=O)(=O)c2ccccc2)cc1	> 200 µM	> 200 µM	
O=C(c1cc(O)c(O)c(O)c1)c1ccc(O)c(O)c1O	> 200 µM	3.98 µM	
Clc1ccc(NCc2nnc(CCCCCCCCc3nnc(CNc4ccc(Cl)cc4)o3)o2)cc1	> 200 µM	> 200 µM	
C=Cc1cc[n+](CCCCC[n+]2ccc(C=C)cc2)cc1	> 100 µM	> 100 µM	
O=C1c2cc([N+](=O)[O-])cc3cc([N+](=O)[O-])cc(c23)C(=O)N1CCNCCN1C(=O)c2cc([N+](=O)[O-])cc3cc([N+](=O)[O-])cc(c23)C1=O	> 29.5 µM	0.0912 µM	

Structure (SMILES)	EC50	IC50	outcome
CC(C)(c1ccc(Oc2ccc(C#N)c(C#N)c2)cc1)c1ccc(Oc2ccc(C#N)c(C#N)c2)cc1	> 10.7 µM	> 10.7 µM	
OC(c1ccc(C(F)(F)F)cc1)C(F)(F)c1nc2ccccc2o1 (stereo unspecified)	> 200 µM	> 200 µM	
CN(C)C(=O)Nc1cc2c3c(c1)CCCN3CCC2	81.3 µM	174 µM	
CC(SC(=S)N1CCOCC1)c1cc2oc(=O)n(C)c2cc1Cl (stereo unspecified)	> 10 µM	> 10 µM	
O=c1ccn(CC2COC(CP(=O)(O)O)O2)c(=O)[nH]1 (stereo unspecified)	> 200 µM	> 200 µM	
CC(=O)N1C(Nc2nccs2)CCN1c1ccccc1 (stereo unspecified)	> 200 µM	26.9 µM	
O=c1c2c(no[n+]2[O-])c2ccccc2n1-c1ccccc1	> 200 µM	1.95 µM	
O=C(Nc1ccc(Cl)cc1)c1cc2cc(N=Nc3ccc(Br)cc3)ccc2oc1=O			inactive
O=[N+]([O-])c1cccc(-c2ncnc(-c3cccc([N+](=O)[O-])c3)n2)c1	> 100 µM	> 100 µM	
CC(=O)Oc1c2occc2cc2ccc(=O)oc12	> 72.4 µM	> 72.4 µM	
O=c1c(NCc2ccccc2)c(C2(c3ccccc3F)SCCCS2)c1=O	> 200 µM	151 µM	
Clc1ccc(/C(=C\c2ccccc2)Cn2ccnc2)cc1	> 200 µM	16.2 µM	
CC(C)c1ccc(O)c(=O)cc1			inactive
C[n+]1c2ccccc2cc2c(CNC(CCCN=C(N)N)C(=O)O)cccc21 (stereo unspecified)			inactive
O=C1CC2c3ccccc3CCC2c2ccccc21 (stereo unspecified)	> 200 µM	7.59 µM	
O=C(CCNC12CC3CC(CC(C3)C1)C2)c1ccccc1			inactive
CCOP(=O)(OCC)/C(C)=N/O	> 1290 µM	> 1290 µM	
O=C1CCCCCCCCCCC(=O)N2CCOCCOCCN1Cc1cccc(n1)C2	> 407 µM	316 µM	
O=C(N=C1OC2C(OC(=O)c3ccccc3)C(COC(=O)c3ccccc3)OC2N1C(=O)c1ccccc1)c1ccccc1 (stereo unspecified)	> 200 µM	107 µM	
